Data from US8609652B2, “Method of administering a methylene blue-curcumin analog for the treatment of alzheimer's disease” (DePuy Synthes Products, LLC, priority 2009, dated 2013).
“Also recorded” adds a separate entry of the source. Structures can show the parent of a compound that is named as a salt. Where two headings read alike, the source gives them in different places.

Columns and labels:
[1] = cited from earlier work; for Parent Solubility: parent phenol
[2] = in vivo, 1 mg/kg
Source text: In some embodiments, the water-soluble ester prodrug is created by reacting the phenolic parent compound with dimethylglycine. The literature reports rendering lipophilic phenolic compounds water soluble by reacting the phenolic parent compound with dimethylglycine. […]. Al-Ghananeem concluded that the prodrug provides for targeted intranasal delivery of 17B-estradiol to the brain.

[3] = cited from earlier work; for peak cerebrospinal fluid (CSF) concentration of estradiol: in vivo, 1 mg/kg
[4] = cited from earlier work
[5] = cited from earlier work; remark: listed apart in the source
[6] = cited from earlier work; remark: listed apart in the source
[7] = cited from earlier work; remark: listed apart in the source
[8] = carbamazepine peak brain tissue concentration by route (Barakat)
[9] = test system: enzymatic glucuronidation activity; conditions: concentrations in excess of about 10 mM; cited from earlier work
[10] = test system: PC12 cells; experiment: relative potency versus curcumin in in vitro protection of PC12 cells against beta amyloid insult; type: cell-based
Source text: Each of the parent compounds may be obtained by the methods disclosed in Park.
It is further observed that both of these qualities can be placed into the same molecule (35).

[11] = test system: PC12 cells, βA (25-35); conditions: cited from earlier work; for anti-βA (25-35) ED50: Park, concentration required to achieve 50% cell viability; for anti-BA (25-35) ED50: Kim
[12] = test system: PC12 cells, βA (1-42); conditions: cited from earlier work; for anti-βA (1-42) ED50: Park; for anti-BA (1-42) ED50: Kim
[13] = test system: AD patients' macrophages; conditions: cited from earlier work
[14] = predicted curcumin levels from transdermal iontophoresis of charged curcumin prodrugs; type: in vivo, human
[15] = cited from earlier work; for serum Cmax: volunteers
[16] = target: T1, UGT1A1 (Homo sapiens, UniProt P22309); conditions: about one hour after exposure; cited from earlier work
T1 sequence (P22309 26-533): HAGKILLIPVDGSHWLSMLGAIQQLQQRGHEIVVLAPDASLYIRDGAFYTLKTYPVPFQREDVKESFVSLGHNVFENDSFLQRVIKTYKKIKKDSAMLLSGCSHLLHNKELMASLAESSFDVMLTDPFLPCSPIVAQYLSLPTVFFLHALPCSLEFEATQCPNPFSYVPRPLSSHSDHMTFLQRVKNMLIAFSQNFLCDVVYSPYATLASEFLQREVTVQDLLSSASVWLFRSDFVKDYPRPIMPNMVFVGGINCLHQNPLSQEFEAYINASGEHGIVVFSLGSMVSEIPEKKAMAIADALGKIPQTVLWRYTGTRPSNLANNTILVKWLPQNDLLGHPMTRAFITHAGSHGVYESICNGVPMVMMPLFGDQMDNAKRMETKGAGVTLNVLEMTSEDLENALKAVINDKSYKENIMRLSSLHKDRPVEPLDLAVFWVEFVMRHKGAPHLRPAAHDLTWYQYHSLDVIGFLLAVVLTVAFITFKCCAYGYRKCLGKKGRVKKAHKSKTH

[17] = oral dosing, cited from earlier work
[18] = test system: amyloid plaques; conditions: injected peripherally, aged Tg mice; cited from earlier work
[19] = target: MRP2 (Homo sapiens, UniProt Q92887); conditions: read-out: IC50, MRP-2-mediated transport; Wortelboer; cited from earlier work
[20] = brain tissue concentration after curcumin injection (Wang); conditions: injection of 30 mg/kg
[21] = test system: rat hippocampal neurons; conditions: cited from earlier work
[22] = test system: cultured hippocampal cells; conditions: cited from earlier work
[23] = cited from earlier work; remark: listed apart in the source
[24] = target: plasma membrane binding sites for resveratrol; conditions: rat brain; cited from earlier work
[25] = test system: UGT enzymes; conditions: cited from earlier work
[26] = reservoir concentration about 25-50 mg/ml

Chain of MRP2 (Q92887 whole entry): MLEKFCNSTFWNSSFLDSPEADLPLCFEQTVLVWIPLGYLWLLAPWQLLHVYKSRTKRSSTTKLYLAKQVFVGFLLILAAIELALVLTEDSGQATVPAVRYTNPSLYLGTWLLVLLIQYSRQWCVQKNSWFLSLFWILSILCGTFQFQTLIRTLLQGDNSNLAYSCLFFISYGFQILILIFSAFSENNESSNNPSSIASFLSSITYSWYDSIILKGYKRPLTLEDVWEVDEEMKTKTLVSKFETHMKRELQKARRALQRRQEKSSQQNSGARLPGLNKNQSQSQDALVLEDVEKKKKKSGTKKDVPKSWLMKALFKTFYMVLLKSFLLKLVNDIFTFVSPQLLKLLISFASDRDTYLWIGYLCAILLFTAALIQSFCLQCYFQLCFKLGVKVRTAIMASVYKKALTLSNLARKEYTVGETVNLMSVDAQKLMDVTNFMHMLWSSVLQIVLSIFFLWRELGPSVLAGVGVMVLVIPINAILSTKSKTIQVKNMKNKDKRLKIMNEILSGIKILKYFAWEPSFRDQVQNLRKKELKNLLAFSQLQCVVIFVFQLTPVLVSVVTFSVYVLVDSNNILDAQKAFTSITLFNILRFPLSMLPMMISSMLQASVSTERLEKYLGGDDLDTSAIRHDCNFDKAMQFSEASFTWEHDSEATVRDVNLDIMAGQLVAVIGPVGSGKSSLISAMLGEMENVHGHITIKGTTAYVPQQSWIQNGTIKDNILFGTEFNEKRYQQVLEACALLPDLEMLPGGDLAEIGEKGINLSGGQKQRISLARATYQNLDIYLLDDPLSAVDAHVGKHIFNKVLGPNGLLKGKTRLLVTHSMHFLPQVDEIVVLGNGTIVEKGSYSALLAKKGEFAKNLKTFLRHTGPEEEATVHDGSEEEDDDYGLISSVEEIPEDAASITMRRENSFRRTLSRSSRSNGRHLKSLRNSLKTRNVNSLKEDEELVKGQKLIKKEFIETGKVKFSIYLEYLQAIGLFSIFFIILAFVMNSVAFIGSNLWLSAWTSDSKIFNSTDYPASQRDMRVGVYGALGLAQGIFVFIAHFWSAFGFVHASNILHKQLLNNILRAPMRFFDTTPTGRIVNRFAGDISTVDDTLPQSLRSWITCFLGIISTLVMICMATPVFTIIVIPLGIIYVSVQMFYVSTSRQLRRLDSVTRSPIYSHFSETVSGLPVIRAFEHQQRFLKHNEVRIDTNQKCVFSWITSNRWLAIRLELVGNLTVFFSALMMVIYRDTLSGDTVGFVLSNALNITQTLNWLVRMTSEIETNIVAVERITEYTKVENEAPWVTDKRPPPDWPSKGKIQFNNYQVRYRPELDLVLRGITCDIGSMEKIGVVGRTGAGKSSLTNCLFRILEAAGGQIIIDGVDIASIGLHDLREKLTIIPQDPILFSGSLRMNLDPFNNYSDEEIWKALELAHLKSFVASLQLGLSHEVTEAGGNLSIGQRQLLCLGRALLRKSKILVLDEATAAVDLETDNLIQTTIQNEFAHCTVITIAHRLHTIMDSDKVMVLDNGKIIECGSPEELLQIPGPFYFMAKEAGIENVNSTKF

Compound: CCN(CC)CCC(=O)Oc1ccc2c(c1)CC[C@@H]1[C@@H]2CC[C@]2(C)[C@@H](O)CC[C@@H]12.Cl [3-DEAPE2HCl, 3-N,N-diethylamino propionyl ester hydrochloride]
- water solubility of estradiol ester prodrug ([1]; dimethylglycine ester where the label is estradiol): about 20 mg/ml

Compound: CN(C)CCCC(=O)Oc1ccc2c(c1)CC[C@@H]1[C@@H]2CC[C@]2(C)[C@@H](O)CC[C@@H]12.Cl [3-DMABE2-HCl, 3-N,N dimethylamino butyl ester HCl]
- peak CSF concentration (molar) [2]: ~0.15 µM
- peak cerebrospinal fluid (CSF) concentration of estradiol [3]: about 66 ng/ml

Compound: CCCN(CCC)C1CCc2c(O)cccc2C1 (centres unmarked) [5-OH-DPAT]
- Flux ([4]; 0.5 mg/ml): 78.4 nmol/cm/h
- Flux ([4]; 1.3 mg/ml): 187.6 nmol/cm/h
- Flux ([4]; 2.3 mg/ml): 318.2 nmol/cm/h
- Flux [4]: 90 μg/(cm^2 · h)

Compound: CN(C)CCCC(=O)O[C@H]1CC[C@H]2[C@@H]3CCc4cc(O)ccc4[C@H]3CC[C@]12C.Cl [17-DMABE2HCl, 17-N,N dimethylamino butyl ester HCl]
- peak CSF concentration (molar) [2]: about 0.075 μM
- shelf life of nasal spray solution ([5]; pH 4, 25° C.): approximately 19 months
- peak cerebrospinal fluid (CSF) concentration of estradiol [3]: about 30 ng/ml

Compound: C[C@]12CC[C@@H]3c4ccc(O)cc4CC[C@H]3[C@@H]1CC[C@@H]2O [17β-estradiol]
- octanol/water partition coefficient log P [6]: 3.1-4.0
- CSF concentration of 17B-estradiol, intranasal versus comparable intravenous dose of the prodrug ([3]; dimethylglycine ester prodrug): 5-8 fold

Compound: Nc1nc2c(ncn2COCCO)c(=O)[nH]1 [Acyclovir]
- solubility in water of the unmodified compound [1]: 1400 µg/mL

Compound: CC(C)NCC(O)COc1ccc(CC(N)=O)cc1 (centres unmarked) [Atenolol]
- Flux [4]: 400 μg/(cm^2 · h)

Compound: NC(=O)N1c2ccccc2C=Cc2ccccc21 [Carbamazepine]
- Peak Brain Tissue ([7]; Intranasal, 0.2 mg/kg): 12 µg/g
- Peak Brain Tissue ([7]; Intravenous, 8.0 mg/kg): 4 µg/g
- Peak Brain Tissue ([7]; Oral, 16 mg/kg): 3 µg/g
- Peak Brain Tissue, ~uM ([8]; Intranasal, 0.2 mg/kg): ~48 µM
- Peak Brain Tissue, ~uM ([8]; Intravenous, 8.0 mg/kg): ~16 µM
- Peak Brain Tissue, ~uM ([8]; Oral, 16 mg/kg): ~12 µM
- peak brain tissue concentration, intranasal versus oral dosing ([8]; in vivo, po): about four times higher

Compound: C[C@]12CC[C@H](O)CC1=CC[C@@H]1[C@@H]2CC[C@]2(C)C(=O)CC[C@@H]12 [DHEA]
- octanol/water partition coefficient log P [6]: 1.54

Compound: CCCCOC(=O)[C@@H](N)Cc1ccc(O)c(O)c1 [L-dopa butyl ester]
- estimated time for 10% decomposition ([5]; pH 4.4, 0.05M phosphate buffer, 10° C.): 2.7 years

Compound: CC(C)c1cccc(C(C)C)c1OC(=O)[C@@H]1CCCN1 [L-proline ester of propofol]
- solubility of the prodrug [1]: about 1.1 mmol/ml

Compound: [Mg+2] [Mg^+2]
- inhibition of enzymatic glucuronidation activity [9]: about 85%

Compound: O=C(O)c1ccccc1O [Salicylic Acid]
- Flux [4]: 41.17 μg/(cm^2 · h)

Compound: CC(C)(C)NC[C@H](O)COc1nsnc1N1CCOCC1 [Timolol]
- Flux ([4]; reservoir 10 mg/ml, 2 ml): 200 μg/(cm^2 · h)
- Flux ([4]; reservoir 20 mg/ml, 2 ml): 250 μg/(cm^2 · h)

Compound: COc1cc(/C=C/C(=O)COC(=O)/C=C/c2ccc(O)c(OC)c2)ccc1O [compound 31, 4″-(3′″-methoxy-4′″-hydroxyphenyl)-2″-oxo-3″-enebutanyl3-(3′-methoxy-4′hydroxyphenyl)propenoate]
- fold more potent than curcumin as neuroprotectant against beta amyloid ([10]; analysis of the Park data): ~5 fold
- anti-βA (25-35) ED50 [11]: 1.0 ± 0.3 µg/mL
- anti-βA (1-42) ED50 [12]: 2.0 ± 0.4 µg/mL

Compound: COc1cc(C=CC(=O)CC(=O)C=Cc2ccc(O)cc2)ccc1O [compound 32, 1-(4-hydroxy-3-methoxyphenyl)-7-(4-hydroxyphenyl)-1,6-heptadiene-3,5-dione]
- fold more potent than curcumin as neuroprotectant against beta amyloid ([10]; analysis of the Kim data): ~1.5 fold
- anti-BA (25-35) ED50 [11]: 4.7 ± 0.1 µg/mL
- anti-βA (25-35) ED50 [11]: 4.0 ± 0.5 µg/mL
- anti-BA (1-42) ED50 [12]: 4.2 ± 0.3 µg/mL
- anti-βA (1-42) ED50 [12]: 5.0 ± 0.5 µg/mL

Compound: O=C(C=Cc1ccc(O)cc1)CC(=O)C=Cc1ccc(O)cc1 [compound 33, 1,7-bis(4-hydroxyphenyl)-1,6-heptadiene-3,5-dione]
- fold more potent than curcumin as neuroprotectant against beta amyloid ([10]; analysis of the Kim data): ~2 fold
- fold more potent than curcumin as neuroprotectant against beta amyloid ([10]; analysis of the Park data): 3 fold
- anti-BA (25-35) ED50 [11]: 3.5 ± 0.2 µg/mL
- anti-βA (25-35) ED50 [11]: 2.0 ± 0.6 µg/mL
- anti-BA (1-42) ED50 [12]: 3.0 ± 0.3 µg/mL
- anti-βA (1-42) ED50 [12]: 3.5 ± 0.7 µg/mL
- optimum concentration [13]: 0.1 µM

Compound: O=C(C=Cc1ccc(O)cc1)CC(=O)CCc1ccc(O)cc1 [compound 34, 1,7-bis(4-hydroxyphenyl)-1-heptene-3,5-dione]
- fold more potent than curcumin as neuroprotectant against beta amyloid ([10]; analysis of the Park data): ~10 fold
- anti-βA (25-35) ED50 [11]: 0.5 ± 0.2 µg/mL
- anti-βA (1-42) ED50 [12]: 1.0 ± 0.3 µg/mL

Compound: COc1cc(/C=C/C(=O)CC(=O)/C=C/c2ccc(O)c(OC)c2)ccc1O [curcumin, (E,E)-1,7-bis(4-hydroxy-3-methoxyphenyl)-1,6-heptadiene-3,5,-dione]
- predicted flux ([14]; divalent curcumin salt): about 800 μg/(cm^2·h)
- predicted plasma concentration ([14]; divalent curcumin salt): about 0.3 μM
- predicted flux [14, 26]: about 400 μg/(cm^2·h)
- predicted plasma concentration [14, 26]: about 60 ng/ml; also recorded: about 0.14 μM
- predicted flux ([14]; worst case): about 35 μg/(cm^2·h)
- predicted plasma concentration ([14]; worst case): about 5 ng/ml
- predicted plasma concentration ([14]; worst case, flux 35, 50 cm^2, clearance 350 L/hr): 0.012 µM
- AUC ([15]; Shoba, Oral + piperine): 80 ng·h/mL
- AUC ([15]; Shoba, Oral Dosing): 4 ng·h/mL
- serum Cmax ([15]; Shoba, 2 g/day oral curcumin supplemented with piperine, second of two values): 180 ng/mL
- serum Cmax ([15]; Shoba, 2 g/day oral curcumin, first of two values): 6 ng/mL
- AUC ([15]; Vareed, Oral Dosing): ~30 ng·h/mL
- area-under-the-curve (AUC) ([15]; dose of about 11 g, healthy volunteers, conjugated curcumin (Vareed)): about 30 μg/ml·hr
- clearance ([15]; oral dosing of curcumin plus piperine (Shoba)): 7.33 L/h
- octanol/water partition coefficient log P [6]: ~3
- inhibition of UGT1A1 [16]: about 95%
- clearance ([17]; curcumin alone (Shoba)): 495 L/h
- clearance ([17]; curcumin with piperine (Shoba)): 713 L/h
- blood brain barrier crossing and plaque binding [18]: crossed the blood brain barrier and bound amyloid plaques
- solubility in water of the unmodified compound [1]: about 0.004 mg/ml
- IC50 [19]: 5000 nM
- peak curcumin concentration in brain tissue (molar) [20]: about 0.40 uM

Compound: CCCCCCC(C)(C)c1cc(O)c2c(c1)OC(C)(C)[C@H]1CC=C(CO)C[C@H]21 [dexanabinol]
- Parent Solubility [1]: 2000 to 7000 µg/mL

Compound: OCCOCCN1CCN(C(c2ccccc2)c2ccc(Cl)cc2)CC1 (centres unmarked) [hydroxyzine.HCl]
- octanol:water partition coefficient log Doct/pH 7.4 ([6]; pH 7.4): 2.37-2.87

Compound: Oc1ccc(C=Cc2cc(O)cc(O)c2)cc1 [resveratrol]
- octanol/water partition coefficient log P [6]: about 3.14
- concentration with neuroprotective effect against beta amyloid-induced neurotoxicity [21]: 20 µM
- concentration protecting against nitric oxide related neurotoxicity [22]: 5 to 25 µM
- oral bioavailability [23]: about zero
- solubility in water [1]: < 10 mM
- Ki [24]: 102 nM

Compound: C[C@]12CC[C@H]3[C@@H](CCC4=CC(=O)CC[C@@]43C)[C@@H]1CC[C@@H]2OC(=O)[C@@H]1CCC[N+]1(C)C [testosterone-17β-stachydrine ester, chloride salt]
- iontophoretic flux [4]: about 40 μg/(cm^2·h)

Compound: C[C@]12CC[C@H]3[C@@H](CCC4=CC(=O)CC[C@@]43C)[C@@H]1CC[C@@H]2O [testosterone]
- Parent Solubility [1]: 10 µg/mL
- Flux [4]: 40 μg/(cm^2 · h)

Compound: Triton X-100
- inhibition of several UGT enzymes [25]: nearly fully inhibited
